Test results taken from PubChem BioAssay AID2060893 (Molecular Pharmacology Branch, DTP, NCI, 2025).

System: K86415-001-R-J1-PDC complex spheroids, viability
Assay: Anticancer human tumor K86415-001-R-J1-PDC patient-derived lung adenocarcinoma cell line growth inhibition [RAS]
Settings: for IC50: curve of first compound; for viability, T/C: stronger effect = lower value; active = viability on the fitted dose curve at most 10% of control; inactive = the rest
Method in brief: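 Agents were tested in combination matrices in half-log decrements from a top concentration at or near clinical Cmax (10 microM if undetermined). Targets were multi-cell spheroids of tumour lines plus HUVEC and MSC stromal cells.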
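Also: spheroids exposed to agents for seven days before readout.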

O=C(c1ccc(F)c(F)c1Nc1ccc(I)cc1F)N1CC(O)([C@@H]2CCCCN2)C1 + CCn1c(-c2cccnc2C(C)OC)c2c3cc(ccc31)N1CCOC(CC(NC(=O)C(C(C)C)N(C)C(=O)C3(F)CCN(C(=O)C#CC(C)(C)N(C)C)CC3)C(=O)N3CCCC(N3)C(=O)OCC(C)(C)C2)C1
< 3.16 nM: IC50 (second compound 0.000949 µM) | IC50 (second compound 0.003 µM) | IC50 (second compound 0.00949 µM) | IC50 (second compound 0.03 µM) | IC50 (second compound 0.0949 µM) | IC50 (second compound 0.3 µM)
inactive: viability, T/C (second compound 0.000949 µM, first compound 0.00316 µM) 33.7% | viability, T/C (second compound 0.000949 µM, first compound 0.01 µM) 29.1% | viability, T/C (second compound 0.000949 µM, first compound 0.0316 µM) 11.7% | viability, T/C (second compound 0.000949 µM, first compound 0.1 µM) 15.2% | viability, T/C (second compound 0.003 µM, first compound 0.00316 µM) 11.8% | viability, T/C (second compound 0.00949 µM, first compound 0.00316 µM) 11.9% | viability, T/C (second compound 0.03 µM, first compound 0.00316 µM) 10.5% | viability, T/C (second compound 0.03 µM, first compound 0.01 µM) 8.81% | viability, T/C (second compound 0.0949 µM, first compound 0.00316 µM) 11.1% | viability, T/C (second compound 0.3 µM, first compound 0.00316 µM) 12.8% | viability, T/C (second compound 0.3 µM, first compound 0.01 µM) 11%
active: viability, T/C (second compound 0.000949 µM, first compound 0.316 µM) 6.3% | viability, T/C (second compound 0.000949 µM, first compound 1 µM) 2.8% | viability, T/C (second compound 0.003 µM, first compound 0.01 µM) 8.85% | viability, T/C (second compound 0.003 µM, first compound 0.0316 µM) 7.64% | viability, T/C (second compound 0.003 µM, first compound 0.1 µM) 7.02% | viability, T/C (second compound 0.003 µM, first compound 0.316 µM) 4.31% | viability, T/C (second compound 0.003 µM, first compound 1 µM) 2.26% | viability, T/C (second compound 0.00949 µM, first compound 0.01 µM) 9.16% | viability, T/C (second compound 0.00949 µM, first compound 0.0316 µM) 7.57% | viability, T/C (second compound 0.00949 µM, first compound 0.1 µM) 6.25% | viability, T/C (second compound 0.00949 µM, first compound 0.316 µM) 3.49% | viability, T/C (second compound 0.00949 µM, first compound 1 µM) 2.55% | viability, T/C (second compound 0.03 µM, first compound 0.0316 µM) 12.8% | viability, T/C (second compound 0.03 µM, first compound 0.1 µM) 7.27% | viability, T/C (second compound 0.03 µM, first compound 0.316 µM) 2.71% | viability, T/C (second compound 0.03 µM, first compound 1 µM) 2.49% | viability, T/C (second compound 0.0949 µM, first compound 0.01 µM) 9.53% | viability, T/C (second compound 0.0949 µM, first compound 0.0316 µM) 8.98% | viability, T/C (second compound 0.0949 µM, first compound 0.1 µM) 6.47% | viability, T/C (second compound 0.0949 µM, first compound 0.316 µM) 2.33% | viability, T/C (second compound 0.0949 µM, first compound 1 µM) 1.78% | viability, T/C (second compound 0.3 µM, first compound 0.0316 µM) 8.71% | viability, T/C (second compound 0.3 µM, first compound 0.1 µM) 5.63% | viability, T/C (second compound 0.3 µM, first compound 0.316 µM) 2.69% | viability, T/C (second compound 0.3 µM, first compound 1 µM) 2.11%

CC1(C)CCC(Nc2ncc(C(F)(F)F)c(-c3c[nH]c4c(P(C)(C)=O)c(C#N)ccc34)n2)CN1 (centres undefined) + CCn1c(-c2cc(N3CCN(C)CC3)cnc2C(C)OC)c2c3cc(ccc31)-c1csc(n1)CC(NC(=O)C1CC1C)C(=O)N1CCCC(N1)C(=O)OCC(C)(C)C2
1.19 nM: IC50 (second compound 0.000949 µM)
active: viability, T/C (second compound 0.03 µM, first compound 0.000949 µM) 6.32% | viability, T/C (second compound 0.03 µM, first compound 0.003 µM) 7.15% | viability, T/C (second compound 0.03 µM, first compound 0.00949 µM) 6.95% | viability, T/C (second compound 0.03 µM, first compound 0.03 µM) 7.05% | viability, T/C (second compound 0.03 µM, first compound 0.0949 µM) 6.99% | viability, T/C (second compound 0.03 µM, first compound 0.3 µM) 8.91% | viability, T/C (second compound 0.0949 µM, first compound 0.000949 µM) 5.16% | viability, T/C (second compound 0.0949 µM, first compound 0.003 µM) 5.23% | viability, T/C (second compound 0.0949 µM, first compound 0.00949 µM) 6.96% | viability, T/C (second compound 0.0949 µM, first compound 0.03 µM) 5.02% | viability, T/C (second compound 0.0949 µM, first compound 0.0949 µM) 6.21% | viability, T/C (second compound 0.0949 µM, first compound 0.3 µM) 7.98% | viability, T/C (second compound 0.3 µM, first compound 0.000949 µM) 3.6% | viability, T/C (second compound 0.3 µM, first compound 0.003 µM) 4.59% | viability, T/C (second compound 0.3 µM, first compound 0.00949 µM) 5.58% | viability, T/C (second compound 0.3 µM, first compound 0.03 µM) 6.23% | viability, T/C (second compound 0.3 µM, first compound 0.0949 µM) 5.28% | viability, T/C (second compound 0.3 µM, first compound 0.3 µM) 6.87%
< 0.949 nM: IC50 (second compound 0.003 µM) | IC50 (second compound 0.00949 µM) | IC50 (second compound 0.03 µM) | IC50 (second compound 0.0949 µM) | IC50 (second compound 0.3 µM)
inactive: viability, T/C (second compound 0.000949 µM, first compound 0.000949 µM) 57.1% | viability, T/C (second compound 0.000949 µM, first compound 0.003 µM) 45.9% | viability, T/C (second compound 0.000949 µM, first compound 0.00949 µM) 37.9% | viability, T/C (second compound 0.000949 µM, first compound 0.03 µM) 39.5% | viability, T/C (second compound 0.000949 µM, first compound 0.0949 µM) 42.2% | viability, T/C (second compound 0.000949 µM, first compound 0.3 µM) 39.5% | viability, T/C (second compound 0.003 µM, first compound 0.000949 µM) 24.9% | viability, T/C (second compound 0.003 µM, first compound 0.003 µM) 18.3% | viability, T/C (second compound 0.003 µM, first compound 0.00949 µM) 20.9% | viability, T/C (second compound 0.003 µM, first compound 0.03 µM) 20.8% | viability, T/C (second compound 0.003 µM, first compound 0.0949 µM) 24.6% | viability, T/C (second compound 0.003 µM, first compound 0.3 µM) 23.6% | viability, T/C (second compound 0.00949 µM, first compound 0.000949 µM) 10.8% | viability, T/C (second compound 0.00949 µM, first compound 0.003 µM) 10.4% | viability, T/C (second compound 0.00949 µM, first compound 0.00949 µM) 11.1% | viability, T/C (second compound 0.00949 µM, first compound 0.03 µM) 13.3% | viability, T/C (second compound 0.00949 µM, first compound 0.0949 µM) 12.4% | viability, T/C (second compound 0.00949 µM, first compound 0.3 µM) 14.3%
